In the CheMixHub viscosity set:
“And” between values parts separate entries of the source, which are not always exact repeats. Equal entries are not always repeated.

Test: xn = mol fraction of the nth substance listed

CC(=O)C(=O)[O-].[Na+] + O
viscosity [mPa·s], 101 kPa
Conditions	x1 = 0.00036	x1 = 0.000648	x1 = 0.000936	x1 = 0.00137	x1 = 0.00151	x1 = 0.0018
298.15 K	0.8972	0.9038	0.9104	0.9173	0.9206	0.9267
303.15 K	0.8044	0.811	0.8176	0.826	0.8308	0.8369
308.15 K	0.7257	0.7308	0.7375	0.7474	0.7507	0.7569
313.15 K	0.6602	0.6669	0.6735	0.682	0.6868	0.6931

CC(C)CC(=O)O + O
viscosity [mPa·s], 101.33 kPa
Conditions	293.15 K	313.15 K
x1 = 0.0036	1.106	0.724
x1 = 0.0073	1.161	0.742

CC1COC(=O)O1 (centres undefined) + O
298.15 K, 101 kPa
Conditions	viscosity [mPa·s]
x1 = 0.0025	0.9114
x1 = 0.005	0.9267
x1 = 0.01	0.959
x1 = 0.02	1.028
x1 = 0.025	1.064
x1 = 0.0307	1.099

CCC(N)(CO)CO + O
viscosity [mPa·s], 101.33 kPa
Conditions	x1 = 0.0364	x1 = 0.0916	x1 = 0.185	x1 = 0.261	x1 = 0.377
303.15 K	1.765	4.993	21.96	56.54	199.2
313.15 K	1.356	3.435	12.89	30.13	85.62
323.15 K	1.053	2.504	8.22	17.36	44.4

CCCCn1cc[n+](C)c1.O=S(=O)([O-])C(F)(F)F + O
101 kPa
Conditions	viscosity [mPa·s]
308.15 K, x2 = 0.3999	19.95
323.15 K, x2 = 0.901	3.005

CCOCCn1cc[n+](C)c1.C[C@@H](O)[C@H](N)C(=O)[O-] + O
Conditions	viscosity [mPa·s]
298.15 K, 100 kPa, x2 = 0.492	991.4

CC[C@H](C)[C@H](N)C(=O)O + O
viscosity, 101 kPa
Conditions	293.15 K	298.15 K	303.15 K	308.15 K	313.15 K	318.15 K
x1 = 0.00045	1.008 mPa·s	0.896 mPa·s and 0.896 mPa·s	0.8028 mPa·s and 0.8027 mPa·s	0.7244 mPa·s and 0.7243 mPa·s	0.6578 mPa·s and 0.6577 mPa·s	0.6022 mPa·s and 0.602 mPa·s
x1 = 0.0009	1.019 mPa·s	0.9057 mPa·s and 0.9059 mPa·s	0.8118 mPa·s and 0.8118 mPa·s	0.733 mPa·s and 0.7328 mPa·s	0.6658 mPa·s and 0.6657 mPa·s	0.6098 mPa·s and 0.6096 mPa·s
x1 = 0.00135	1.03 mPa·s	0.9164 mPa·s and 0.9165 mPa·s	0.8217 mPa·s and 0.8217 mPa·s	0.7422 mPa·s and 0.742 mPa·s	0.6745 mPa·s and 0.6744 mPa·s	0.6181 mPa·s and 0.6178 mPa·s
x1 = 0.0018	1.042 mPa·s	0.9273 mPa·s and 0.9275 mPa·s	0.8319 mPa·s and 0.8318 mPa·s	0.7516 mPa·s and 0.7515 mPa·s	0.6834 mPa·s and 0.6832 mPa·s	0.6265 mPa·s and 0.6261 mPa·s
x1 = 0.002245	1.054 mPa·s	0.9386 mPa·s and 0.9387 mPa·s	0.8423 mPa·s and 0.8422 mPa·s	0.7613 mPa·s and 0.7612 mPa·s	0.6925 mPa·s and 0.6923 mPa·s	0.6351 mPa·s and 0.6347 mPa·s
x1 = 0.002695	1.067 mPa·s	0.9502 mPa·s and 0.9502 mPa·s	0.8531 mPa·s and 0.853 mPa·s	0.7714 mPa·s and 0.7713 mPa·s	0.702 mPa·s and 0.7018 mPa·s	0.6438 mPa·s and 0.6434 mPa·s

O=C(O)C(O)C(O)C(=O)O (centres undefined) + O
viscosity, 100 kPa
Conditions	298.15 K	303.15 K	308.15 K	313.15 K	318.15 K
x1 = 0.003486	0.9322 mPa·s and 0.9322 mPa·s	0.8367 mPa·s and 0.8367 mPa·s	0.7533 mPa·s and 0.7533 mPa·s	0.6829 mPa·s and 0.6829 mPa·s	0.6209 mPa·s and 0.6209 mPa·s
x1 = 0.006751	0.9765 mPa·s and 0.9765 mPa·s	0.8735 mPa·s and 0.8735 mPa·s	0.7864 mPa·s and 0.7864 mPa·s	0.7098 mPa·s and 0.7098 mPa·s	0.6435 mPa·s and 0.6435 mPa·s
x1 = 0.009818	1.038 mPa·s and 1.038 mPa·s	0.9206 mPa·s and 0.9206 mPa·s	0.8235 mPa·s and 0.8235 mPa·s	0.7408 mPa·s and 0.7408 mPa·s	0.6707 mPa·s and 0.6707 mPa·s
x1 = 0.0127	1.088 mPa·s and 1.088 mPa·s	0.9696 mPa·s and 0.9696 mPa·s	0.8645 mPa·s and 0.8645 mPa·s	0.7756 mPa·s and 0.7756 mPa·s	0.6996 mPa·s and 0.6996 mPa·s

O=C([O-])[O-].[K+].[K+] + O
viscosity [mPa·s], 101 kPa
Conditions	303.15 K	308.15 K	313.15 K
x1 = 0.002	0.839	0.769	0.703
x1 = 0.005	0.889	0.814	0.745
x1 = 0.009	0.944	0.864	0.793

O=S(=O)([O-])[O-].[Ca+2] + O
100 kPa
Conditions	viscosity [mPa·s]
303.15 K, x1 = 0.000281	0.7976
323.15 K, x1 = 0.000279	0.557

O=[N+]([O-])[O-].O=[N+]([O-])[O-].O=[N+]([O-])[O-].[Ce+3] + O
viscosity [mPa·s], 101.3 kPa
Conditions	x1 = 0.009125	x1 = 0.01824	x1 = 0.02724	x1 = 0.03472	x1 = 0.05339	x1 = 0.06671	x1 = 0.0744
293.15 K	1.312	1.718	2.423	3.281	6.899	13.02	19.48
298.15 K	1.174	1.529	2.169	2.911	5.937	10.99	16.06
308.15 K	0.9509	1.249	1.734	2.299	4.599	8.055	11.34

O=[N+]([O-])[O-].O=[N+]([O-])[O-].[Mg+2] + O
viscosity [mPa·s], 100 kPa
Conditions	x1 = 0.01	x1 = 0.03	x1 = 0.05	x1 = 0.07
298.15 K	1.138	1.6	2.409	4.609
323.15 K	0.707	0.9853	1.479	2.709

C1CCOC1 + O=C1CCCO1
viscosity [mPa·s]
Conditions	293.15 K	298.15 K	303.15 K	308.15 K	313.15 K	318.15 K	323.15 K
101 kPa, x1 = 0.1009	1.614	1.496	1.39	1.297	1.212	1.136	1.068
101 kPa, x1 = 0.2003	1.388	1.292	1.206	1.128	1.058	0.995	0.938
101 kPa, x1 = 0.3008	1.203	1.123	1.052	0.987	0.93	0.877	0.83
101 kPa, x1 = 0.4004	1.046	0.98	0.92	0.866	0.818	0.773	0.733
101 kPa, x1 = 0.4916	0.936	0.878	0.825	0.778	0.735	0.696	0.66
101 kPa, x1 = 0.5991	0.809	0.761	0.717	0.677	0.641	0.608	0.578
101 kPa, x1 = 0.6997	0.706	0.667	0.631	0.598	0.567	0.537	0.511
101 kPa, x1 = 0.8	0.62	0.589	0.56	0.531	0.506	0.482	0.461
101 kPa, x1 = 0.8997	0.567	0.538	0.511	0.485	0.463	0.441	0.415
101.33 kPa, x1 = 0.1077	1.583	1.462	–	–	–	–	–
101.33 kPa, x1 = 0.3124	1.172	1.089	–	–	–	–	–
101.33 kPa, x1 = 0.701	0.682	0.641	–	–	–	–	–
101.33 kPa, x1 = 0.8954	0.539	0.51	–	–	–	–	–

CC(C)C[P+](C)(CC(C)C)CC(C)C.Cc1ccc(S(=O)(=O)[O-])cc1 + O=S1(=O)CCCC1
Conditions	viscosity [mPa·s]
323.15 K, 101.33 kPa, x1 = 0.5	68.5

CCCC[P+](CCCC)(CCCC)CCCC.CS(=O)(=O)[O-] + O=S1(=O)CCCC1
Conditions	viscosity [mPa·s]
313.15 K, 101.33 kPa, x1 = 0.5	84.22

c1ccc2ccccc2c1 + O=[N+]([O-])c1ccccc1
viscosity [mPa·s], 101 kPa
Conditions	303.15 K	308.15 K	313.15 K	318.15 K	323.15 K
x1 = 0.2952	1.646	1.544	1.44	1.329	1.231
x1 = 0.4191	–	1.578	1.45	1.346	1.252

CC(C)=O + OCCO
293.15 K, 101.33 kPa
Conditions	viscosity [mPa·s]
x2 = 0.1258	0.439
x2 = 0.2405	0.625
x2 = 0.2517	0.651
x2 = 0.3451	0.912
x2 = 0.3891	1.086
x2 = 0.5257	1.91
x2 = 0.6291	3.034
x2 = 0.6515	3.393
x2 = 0.7734	6.123
x2 = 0.8254	7.897
x2 = 0.8715	9.97
x2 = 0.921	13.18

CC[N+](CC)(CC)CC.Cc1ccc(S(=O)(=O)[O-])cc1 + OCCO
101 kPa, x1 = 0.2
Conditions	viscosity [mPa·s]
298.15 K	51.2
303.15 K	40.8
308.15 K	32.8
313.15 K	24.4
318.15 K	22.2
323.15 K	17.4

CC[N+](CC)(CC)CC.Cc1ccc(S(=O)(=O)[O-])cc1 + OCCOCCOCCOCCO
101 kPa, x1 = 0.2
Conditions	viscosity [mPa·s]
298.15 K	74.7
303.15 K	57.8
308.15 K	45.9
313.15 K	36.9
318.15 K	30.2
323.15 K	25

O=S(=O)([O-])[O-].[Mn+2] + [2H]O[2H]
viscosity [mPa·s], 101 kPa
Conditions	x1 = 0.005	x1 = 0.012	x1 = 0.02	x1 = 0.029	x1 = 0.037
298.15 K	1.297	1.59	2.183	3.14	4.452
308.15 K	1	1.247	1.696	2.404	3.327
318.15 K	0.827	1.008	1.371	1.912	2.575
